Legend:
Format in all cases: cell-based
[1] = test system: Human dermal fibroblasts from Friedreich's ataxia patients; experiment: Rescue of BSO-stressed FRDA fibroblasts (Example A); conditions: FRDA fibroblasts (Coriell GM04078), 1 mM BSO, 48 h, Calcein AM viability, read-out: protection against FRDA, EC50
Experimental: (§1) Test samples and solvent controls were tested for their ability to rescue FRDA fibroblasts stressed by addition of L-buthionine-(S,R)-sulfoximine (BSO), as described in Jauslin et al., Hum. Mol. Genet. 11(24):3055 (2002), Jauslin et al., FASEB J. 17:1972-4 (2003), and International Patent Application WO 2004/003565. […] This specific BSO-mediated cell death can be prevented by administration of antioxidants or molecules involved in the antioxidant pathway, such as alpha-tocopherol, selenium, or small molecule glutathione peroxidase mimetics. However, antioxidants differ in their potency, i.e. the concentration at which they are able to rescue BSO-stressed FRDA fibroblasts.
(§2) MEM (a medium enriched in amino acids and vitamins, catalog no. 1-31F24-I) and Medium 199 (M199, catalog no. 1-21F22-I) with Earle's Balanced Salts, without phenol red, were purchased from Bioconcept. Fetal Calf Serum was obtained from PAA Laboratories. Basic fibroblast growth factor and epidermal growth factor were purchased from PeproTech. Penicillin-streptomycin-glutamine mix, L-buthionine (S,R)-sulfoximine, and insulin from bovine pancreas were purchased from Sigma. Calcein AM was purchased from Molecular Probes. Cell culture medium was made by combining 125 ml M199 EBS, 50 ml Fetal Calf Serum, 100 U/ml penicillin, 100 μg/ml streptomycin, 2 mM glutamine, 10 μg/ml insulin, 10 ng/ml EGF, and 10 ng/ml bFGF; MEM EBS was added to make the volume up to 500 ml. A 10 mM BSO solution was prepared by dissolving 444 mg BSO in 200 ml of medium with subsequent filter-sterilization. During the course of the experiments, this solution was stored at +4° C. The cells were obtained from the Coriell Cell Repositories (Camden, N.J.; repository number GM04078) and grown in 10 cm tissue culture plates. Every third day, they were split at a 1:3 ratio. […]
(§3) 100 μl of PBS containing 1.2 μM Calcein AM were then added to each well. […] After that time the PBS was discarded, the plate gently tapped on a paper towel and fluorescence (excitation/emission wavelengths of 485 nm and 525 nm, respectively) was read on a Gemini fluorescence reader. […]

[2] = test system: human dermal fibroblasts from Huntington's patients; experiment: Rescue of fibroblasts from Huntington's patients from oxidative stress (Example B); conditions: Fibroblast, Huntington's cells (Coriell GM 04281), screen as in Example A (BSO stress), read-out: protection against Huntington's, EC50
Experimental: [The source words this procedure for another cell line and reports this cell line under the same test.] as §1, §2, §3

[3] = test system: human dermal fibroblasts from LHON patients; experiment: Rescue of fibroblasts from LHON patients from oxidative stress (Example C); conditions: Fibroblast, LHON cells (Coriell GM03858), screen as in Example A (BSO stress), read-out: protection against LHON, EC50
Experimental: [The source words this procedure for another cell line and reports this cell line under the same test.] as §1
(§4) MEM (a medium enriched in amino acids and vitamins, catalog no. 1-31F24-I) and Medium 199 (M199, catalog no. 1-21F22-I) with Earle's Balanced Salts, without phenol red, were purchased from Bioconcept. Fetal Calf Serum was obtained from PAA Laboratories. Basic fibroblast growth factor and epidermal growth factor were purchased from PeproTech. […]
as §3

[4] = test system: human dermal fibroblasts from Parkinson's disease patients; experiment: Rescue of fibroblasts from Parkinson's disease patients from oxidative stress (Example D); conditions: Fibroblast, Parkinson's disease cells (Coriell AG20439), screen as in Example A (BSO stress), read-out: protection against PD, EC50
Experimental: [The source words this procedure for another cell line and reports this cell line under the same test.] as §1, §4, §3

Compound	EC50 [1] [nM]	EC50 [2] [nM]	EC50 [3] [nM]	EC50 [4] [nM]
CC(C)=CCCC(C)=CCC1=C(C)C(=O)c2ccccc2C1=O [2-(3,7-dimethylocta-2,6-dien-1-yl)-3-methylnaphthalene-1,4-dione]	< 1000	< 500	< 300	< 500
CC(C)=CCC/C(C)=C/CC/C(C)=C/CC/C(C)=C/CC1=C(C)C(=O)c2ccccc2C1=O [2-methyl-3-[3,7,11,15-tetramethylhexadeca-2,6,10,14-tetraen-1-yl]naphthoquinone]	< 1000	< 500	–	–
CC1=CC(=O)c2ccccc2C1=O [2-methylnaphthalene-1,4-dione]	< 1000	< 500	< 300	< 500

Source: patent US20140031432A1, “TREATMENT OF MITOCHONDRIAL DISEASES WITH VITAMIN K” (Ampere Life Sciences, Inc., priority 2010, published 2014)
